Patent US8906929B2, “Inhibitors of human immunodeficiency virus replication” (priority 2012, dated 2014)
pEC50: −log10 of the molar value.

System: recombinant NL-Rluc virus
Assay: Inhibition of HIV replication (NL-RLuc virus in MT-2 cells, luciferase readout)
Assay type: cell-based
Details: 5 days of incubation, 10% FBS

Question: With `Cc1nc2cc3nn2c(c1[C@H](OC(C)(C)C)C(=O)O)-c1ccc2c(c1)C(CCCCc1ccccc1-c1cccc-3c1)CCO2` (single isomer, unassigned) [Example 10] as the compound, how does the pEC50 read?
Answer: 6.63

Same assay, conditions: Human immunodeficiency virus 1, MT2, 120 h, 5 days of incubation, 10% FBS

Question: `Cc1cc2c(cc1F)-c1cccc(c1)-c1cc3nc(C)c([C@H](OC(C)(C)C)C(=O)O)c(n3n1)N1CCC(C)(CC1)OCCCC[C@H](C)O2` [Example 91, (2S)-2-(tert-Butoxy)-2-[(22S)-17-fluoro-4,18,22,28-tetramethyl-21,27-dioxa-1,5,7,8-tetraazahexacyclo[26.2.2.1^6,^9.1^10,^14.0^2,^7.0^15,^20]tetratriaconta-2,4,6(34),8,10(33), 11, 13, 15(20),16,18-decaen-3-yl]acetic acid] was tested. Which pEC50 did it give?
Answer: 7.33

Question: How did the pEC50 turn out when `Cc1cc2c(cc1F)O[C@@H](C)CCCCOC1(C)CCN(CC1)c1c([C@H](OC(C)(C)C)C(=O)O)c(C)nc3cc(nn13)-c1cccc-2c1` [Example 79, (2S)-2-(tert-Butoxy)-2-[(22S)-18-fluoro-4,17,22,28-tetramethyl-21,27-dioxa-1,5,7,8-tetraazahexacyclo[26.2.2.1^6,^9.1^10,^14.0^2,^7.0^15,^20]tetratriaconta-2,4,6(34),8,10(33),11,13,15(20),16,18-decaen-3-yl]acetic acid] was run?
Answer: 7.42

Question: With `Cc1nc2cc3nn2c(c1[C@H](OC(C)(C)C)C(=O)O)N1CCC(C)(CC1)OCCCC[C@H](C)Oc1ccccc1-c1cccc-3c1` [Example 29, (2S)-2-(tert-Butoxy)-2-[(22S)-4,22,28-trimethyl-21,27-dioxa-1,5,7,8-tetraazahexacyclo[26.2.2.1^6,^9.1^10,^14.0^2,^7.0^15,^20]tetratriaconta-2,4,6(34),8,10(33), 11, 13, 15 (20),16,18-decaen-3-yl]acetic acid] as the compound, how does the pEC50 read?
Answer: 7.74

Question: With `Cc1nc2cc3nn2c(c1[C@H](OC(C)(C)C)C(=O)O)-c1ccc2c(c1Cl)N(C/C=C/CCc1cccc(c1)-c1cccc-3c1)CCO2` [Example 2, (2S)-2-(tert-Butoxy)-2-[(22E)-32-chloro-4-methyl-28-oxa-5,7,8,25-tetraazaheptacyclo[23.6.2.1^6,^9.1^10,^14.1^15,^19.0^2,^7.0^29,^33]hexatriaconta-1 (31), 2,4,6(36),8,10(35), 11, 13, 15(34), 16,18,22,29,32-tetradecaen-3-yl]acetic acid] as the compound, how does the pEC50 read?
Answer: 6.14

Question: With `Cc1cc2c3cc1-c1c([C@H](OC(C)(C)C)C(=O)O)c(C)nc4cc(nn14)-c1cccc(c1)-c1ccccc1CCCCCN3CCO2` [Example 7, (2S)-2-(tert-Butoxy)-2-{4,32-dimethyl-29-oxa-5,7,8,26-tetraazaheptacyclo[24.6.2.1^6,^9.1^10,^14.0^2,^7.0^15,^200^30,^34]hexatriaconta-1(32), 2,4,6(36),8,10(35), 11, 13, 15(20), 16,18,30,33-tridecaen-3-yl}acetic acid] as the compound, how does the pEC50 read?
Answer: 5.45

Question: How did the pEC50 turn out when `Cc1nc2cc3nn2c(c1[C@H](OC(C)(C)C)C(=O)O)-c1cc(F)c2c(c1)N(CCCCCc1ccccc1-c1cccc-3c1)CCO2` [Example 16, (2S)-2-(tert-Butoxy)-2-{31-fluoro-4-methyl-29-oxa-5,7,8,26-tetraazaheptacyclo[24.6.2.1^6,^9.1^10,^14.0^2,^7.0^15,^20.0^30,^34]hexatriaconta-1(32),2,4,6(36),8,10(35), 11, 13, 15(20),16,18,30,33-tridecaen-3-yl}acetic acid] was run?
Answer: 6.75

Question: How did the pEC50 turn out when `Cc1cc2c(cc1C)-c1cccc(c1)-c1cc3nc(C)c([C@H](OC(C)(C)C)C(=O)O)c(n3n1)N1CCC(C)(CC1)OCC=CC[C@H](C)O2` [Example 75, (2S)-2-(tert-Butoxy)-2-[(22S)-4,17,18,22,28-pentamethyl-21,27-dioxa-1,5,7,8-tetraazahexacyclo[26.2.2.1^6,^9.1^10,^14.0^2,^7.0^15,^20]tetratriaconta-2,4,6(34),8,10(33), 11, 13, 15 (20),16,18,24-undecaen-3-yl]acetic acid] was run?
Answer: 7.47
